Measured values published in ChEMBL document CHEMBL5584238, “Psammaplin A analogues with modified disulfide bond targeting histone deacetylases: Synthesis and biological evaluation” (Eur J Med Chem, 2024).
The source made the active and inactive calls. The rule behind the calls is not given here.

How the values were obtained:
[1] = molecular target: T1, Protein deacetylase HDAC6 (Homo sapiens) (UniProt Q9UBN7); experiment: Inhibition of HDAC6 in human HCT-116 cells assessed as upregulation of acetylated alpha-tubulin level incubated for 24 hrs by Western blotting analysis; type: cell-based; details: dose 0.5-4 µM
T1 sequence (whole entry): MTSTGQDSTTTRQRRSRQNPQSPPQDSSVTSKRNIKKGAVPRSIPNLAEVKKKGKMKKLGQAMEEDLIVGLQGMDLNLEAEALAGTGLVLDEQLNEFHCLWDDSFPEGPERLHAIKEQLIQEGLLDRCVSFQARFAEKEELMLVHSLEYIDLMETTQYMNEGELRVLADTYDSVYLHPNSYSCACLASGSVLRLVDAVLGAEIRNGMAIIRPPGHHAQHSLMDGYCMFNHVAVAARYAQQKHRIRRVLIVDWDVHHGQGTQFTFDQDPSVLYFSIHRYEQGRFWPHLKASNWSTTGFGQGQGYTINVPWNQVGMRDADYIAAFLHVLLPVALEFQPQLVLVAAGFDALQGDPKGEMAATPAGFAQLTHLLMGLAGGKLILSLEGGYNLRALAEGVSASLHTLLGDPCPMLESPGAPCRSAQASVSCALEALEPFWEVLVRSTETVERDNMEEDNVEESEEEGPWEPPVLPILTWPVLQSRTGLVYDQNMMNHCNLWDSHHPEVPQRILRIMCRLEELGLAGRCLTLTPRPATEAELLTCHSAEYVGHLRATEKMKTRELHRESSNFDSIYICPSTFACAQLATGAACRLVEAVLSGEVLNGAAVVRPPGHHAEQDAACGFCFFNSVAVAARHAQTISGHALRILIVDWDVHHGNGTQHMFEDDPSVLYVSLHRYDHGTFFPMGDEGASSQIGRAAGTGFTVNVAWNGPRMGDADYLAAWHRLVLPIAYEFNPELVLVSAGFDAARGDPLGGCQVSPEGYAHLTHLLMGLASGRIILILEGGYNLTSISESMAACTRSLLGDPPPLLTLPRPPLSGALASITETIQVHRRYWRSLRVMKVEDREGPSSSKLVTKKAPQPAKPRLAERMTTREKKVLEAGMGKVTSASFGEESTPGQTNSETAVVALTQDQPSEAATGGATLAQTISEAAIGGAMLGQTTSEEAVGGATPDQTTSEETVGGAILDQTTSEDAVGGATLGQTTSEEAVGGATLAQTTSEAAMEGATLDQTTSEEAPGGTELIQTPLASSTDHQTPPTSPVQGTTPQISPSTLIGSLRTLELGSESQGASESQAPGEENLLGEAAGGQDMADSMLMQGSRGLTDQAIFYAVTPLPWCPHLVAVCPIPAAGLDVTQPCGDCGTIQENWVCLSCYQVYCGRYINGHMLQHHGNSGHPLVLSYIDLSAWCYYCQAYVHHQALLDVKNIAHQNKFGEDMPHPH

Histone deacetylase 1 = Histone deacetylase 1 (Homo sapiens, UniProt Q13547); experiment: Inhibition of recombinant human HDAC1 using Boc-Lys(Ac)-AMC as substrate preincubated for 1 hr followed by substrate addition and measured after 2 hrs by microplate reader assay
Histone deacetylase 1, sequence (Q13547 whole entry): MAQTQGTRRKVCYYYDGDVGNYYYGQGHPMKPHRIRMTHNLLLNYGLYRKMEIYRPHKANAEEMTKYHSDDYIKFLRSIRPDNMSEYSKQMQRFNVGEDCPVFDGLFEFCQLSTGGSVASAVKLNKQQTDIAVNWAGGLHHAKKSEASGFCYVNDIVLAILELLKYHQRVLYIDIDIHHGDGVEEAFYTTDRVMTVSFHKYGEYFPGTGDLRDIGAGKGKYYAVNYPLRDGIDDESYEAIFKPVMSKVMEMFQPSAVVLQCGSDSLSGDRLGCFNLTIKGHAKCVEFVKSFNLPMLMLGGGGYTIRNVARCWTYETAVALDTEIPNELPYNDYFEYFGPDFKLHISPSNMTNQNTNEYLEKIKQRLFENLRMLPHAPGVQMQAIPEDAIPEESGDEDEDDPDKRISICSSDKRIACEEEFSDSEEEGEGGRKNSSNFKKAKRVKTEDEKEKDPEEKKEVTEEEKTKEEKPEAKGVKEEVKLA

HCT-116 [2] = experiment: Induction of cell cycle arrest in human HCT-116 cells assessed as accumulation of cells at G1 phase at 0.2 uM after 24 hrs by PI staining based flow cytometry analysis (reference value: 37.9%); type: functional
HCT-116 [3] = experiment: Induction of apoptosis in human HCT-116 cells assessed as viable cells at 0.4 uM incubated for 24 hrs by Annexin V-FITC/PI staining based flow cytometry analysis ( Rvb = 92.2%); type: functional; details: read-out: Activity
[4] = molecular target: T2, Protein deacetylase HDAC6 (Mus musculus) (UniProt Q9Z2V5); experiment: In vivo inhibition of HDAC6 in BALB/c nude mouse assessed as upregulation of tumor acetylated alpha-tubulin level at 5 mg/kg, ip administered every 2 days for 26 days by Western blotting analysis; type: functional, organism-based; details: time 26.0 day
T2 sequence (whole entry): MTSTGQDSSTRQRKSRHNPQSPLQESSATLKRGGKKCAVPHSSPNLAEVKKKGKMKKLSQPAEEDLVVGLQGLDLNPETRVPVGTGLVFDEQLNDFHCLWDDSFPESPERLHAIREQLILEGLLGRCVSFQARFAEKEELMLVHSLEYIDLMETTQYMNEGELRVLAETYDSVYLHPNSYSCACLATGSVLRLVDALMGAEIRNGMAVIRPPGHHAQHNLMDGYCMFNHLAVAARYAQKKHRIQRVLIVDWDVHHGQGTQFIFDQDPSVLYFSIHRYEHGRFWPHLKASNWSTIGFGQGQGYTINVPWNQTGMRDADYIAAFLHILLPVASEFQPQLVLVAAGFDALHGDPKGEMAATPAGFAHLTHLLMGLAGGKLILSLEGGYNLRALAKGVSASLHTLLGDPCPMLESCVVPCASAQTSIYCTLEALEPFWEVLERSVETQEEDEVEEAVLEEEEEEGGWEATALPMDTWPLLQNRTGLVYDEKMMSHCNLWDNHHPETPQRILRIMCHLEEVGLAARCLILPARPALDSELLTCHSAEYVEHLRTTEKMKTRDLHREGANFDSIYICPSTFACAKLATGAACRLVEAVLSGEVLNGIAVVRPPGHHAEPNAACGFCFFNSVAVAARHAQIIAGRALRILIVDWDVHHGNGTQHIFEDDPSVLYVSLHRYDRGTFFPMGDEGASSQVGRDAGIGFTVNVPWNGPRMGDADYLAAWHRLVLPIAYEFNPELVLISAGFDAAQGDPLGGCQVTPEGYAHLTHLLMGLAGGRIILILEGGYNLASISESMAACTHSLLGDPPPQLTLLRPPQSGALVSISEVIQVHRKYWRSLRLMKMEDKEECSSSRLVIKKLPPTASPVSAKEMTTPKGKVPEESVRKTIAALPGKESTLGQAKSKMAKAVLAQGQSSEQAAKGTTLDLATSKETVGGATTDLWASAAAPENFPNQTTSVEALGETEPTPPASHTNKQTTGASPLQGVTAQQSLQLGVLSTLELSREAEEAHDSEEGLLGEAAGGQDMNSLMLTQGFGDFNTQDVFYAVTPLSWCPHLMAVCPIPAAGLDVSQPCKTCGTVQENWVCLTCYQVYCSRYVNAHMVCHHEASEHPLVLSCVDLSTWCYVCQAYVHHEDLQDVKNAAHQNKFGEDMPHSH

EBC-1 = experiment: Antiproliferative activity against human EBC-1 cells incubated for 48 hrs by MTT assay; type: functional, cell-based; details: EBC-1, 48 h
[5] = molecular target: T1, Protein deacetylase HDAC6 (Homo sapiens); experiment: Inhibition of HDAC6 in human HCT-116 cells assessed as upregulation of acetylated alpha-tubulin level at 1 uM incubated for 24 hrs by Western blotting analysis; type: cell-based
HCT-116 [6] = experiment: Induction of cell cycle arrest in human HCT-116 cells assessed as accumulation of cells at G1 phase at 0.4 uM after 24 hrs by PI staining based flow cytometry analysis (reference value: 37.9%); type: functional
HCT-116 [7] = experiment: Induction of cell cycle arrest in human HCT-116 cells assessed as accumulation of cells at G2/M phase at 0.4 uM after 24 hrs by PI staining based flow cytometry analysis (reference value: 9.3%); type: functional

## O=C(NCC[Se][Se]CCNC(=O)/C(Cc1ccc(O)c(Br)c1)=N/O)/C(Cc1ccc(O)c(Br)c1)=N/O
[1]
  inhibition: Dose-Dependent Effect
Histone deacetylase 1
  IC50: 0.17 µM
HCT-116 [2]
  Activity: 15%
HCT-116 [3]
  viability at 0.4 µM: 28%
[4]
  inhibition: Active

## O=C(NCC[Se][Se]CCNC(=O)/C(Cc1ccsc1)=N/O)/C(Cc1ccsc1)=N/O
EBC-1
  IC50: 0.64 µM
[5]
  inhibition: Active
[1]
  inhibition: Dose-Dependent Effect
Histone deacetylase 1
  IC50: 0.77 µM
HCT-116 [2]
  Activity: 11.19%
HCT-116 [6]
  Activity: 7.85%
HCT-116 [7]
  Activity: 52.59%
HCT-116 [3]
  viability at 0.4 µM: 19.7%
[4]
  inhibition: Active
